# Entries after “also recorded” stand apart in the source; their conditions may differ.
# Tested on: sugarcane
# Test: Sugarcane flowering inhibition field trials, floral induction rated on UFSCar scale
# Format: in vivo
# Description: In order to explore the activity of florpyrauxifen as flowering inhibitor in sugarcane, field studies were carried out. Florpyrauxifen-benzyl was tested at rates from 2 to 20 grams active ingredient per hectare (g ai/ha) and compared to Ethrel® 720 (Bayer), the standard treatment. The flowering inhibition effect was assessed by checking the floral induction in sugarcane through the percentage scale recommended by UFSCar (Federal University of Sao Carlos, Sao Paulo, Brazil).
# Four trials were carried out in sugarcane where florpyrauxifen-benzyl (Rinskor®), applied at a rate of 2 to 20 g ai/ha, was compared to ethephon (Ethrel® 720) applied at a rate of 475 g ai/ha. Control plots of untreated sugarcane were also evaluated. Rinskor® and Ethrel® 720 were diluted in water and a single application for each study (backpack sprayer) was performed delivering 50 L of spray solution per ha at the reproductive stage of sugarcane and at a maximum 150 days before harvest. The activity of florpyrauxifen-benzyl as a flowering inhibitor was measured via assessments (Scale of flowering inhibition—see chart 1) performed at 0, 14, 30, 45, 60, 75, 90, 120, 150 days after application, or up to harvest time. The assessments were measured in sugarcane stems, rating the flowering induction according to the UFSCar scale shown below. Significance of treatment effect was evaluated with F-approximate test (α=0.1) and least square means from different treatments were compared with Tukey's test.
smiles,measurement,setting,value
"COc1c(Cl)ccc(-c2nc(C(=O)OCc3ccccc3)c(Cl)c(N)c2F)c1F [Rinskor, florpyrauxifen-benzyl]",Frequency 1/1 (0%),"Table 3, 120 DAA, 10 g ai/ha",72.5%
same,Frequency 2/1 (15%),"Table 3, 120 DAA, 10 g ai/ha",27.5%
same,Frequency 3/1 (30%),"Table 3, 120 DAA, 10 g ai/ha",0.0%
same,Frequency 4/1 (50%),"Table 3, 120 DAA, 10 g ai/ha",0.0%
same,Frequency 4/2 (80%),"Table 3, 120 DAA, 10 g ai/ha",0.0%
same,Frequency 4/3 (90%),"Table 3, 120 DAA, 10 g ai/ha",0.0%
same,Frequency 4/4 (100%),"Table 3, 120 DAA, 10 g ai/ha",0.0%
same,% Referring to Scale,"Table 3, 120 DAA, 15 g ai/ha",2.6%
same,Frequency 1/1 (0%),"Table 3, 120 DAA, 15 g ai/ha",85.0%
same,Frequency 2/1 (15%),"Table 3, 120 DAA, 15 g ai/ha",12.5%
same,Frequency 3/1 (30%),"Table 3, 120 DAA, 15 g ai/ha",2.5%
same,Frequency 4/1 (50%),"Table 3, 120 DAA, 15 g ai/ha",0.0%
same,Frequency 4/2 (80%),"Table 3, 120 DAA, 15 g ai/ha",0.0%
same,Frequency 4/3 (90%),"Table 3, 120 DAA, 15 g ai/ha",0.0%
same,Frequency 4/4 (100%),"Table 3, 120 DAA, 15 g ai/ha",0.0%
same,% Referring to Scale,"Table 3, 120 DAA, 20 g ai/ha",3.0%
same,Frequency 1/1 (0%),"Table 3, 120 DAA, 20 g ai/ha",80.0%
same,Frequency 2/1 (15%),"Table 3, 120 DAA, 20 g ai/ha",20.0%
same,Frequency 3/1 (30%),"Table 3, 120 DAA, 20 g ai/ha",0.0%
same,Frequency 4/1 (50%),"Table 3, 120 DAA, 20 g ai/ha",0.0%
same,Frequency 4/2 (80%),"Table 3, 120 DAA, 20 g ai/ha",0.0%
same,Frequency 4/3 (90%),"Table 3, 120 DAA, 20 g ai/ha",0.0%
same,Frequency 4/4 (100%),"Table 3, 120 DAA, 20 g ai/ha",0.0%
same,% Referring to Scale,"Table 3, 150 DAA, 2 g ai/ha",3.0%
same,Frequency 1/1 (0%),"Table 3, 150 DAA, 2 g ai/ha",80.0%
same,Frequency 2/1 (15%),"Table 3, 150 DAA, 2 g ai/ha",20.0%
same,Frequency 3/1 (30%),"Table 3, 150 DAA, 2 g ai/ha",0.0%
same,Frequency 4/1 (50%),"Table 3, 150 DAA, 2 g ai/ha",0.0%
same,Frequency 4/2 (80%),"Table 3, 150 DAA, 2 g ai/ha",0.0%
same,Frequency 4/3 (90%),"Table 3, 150 DAA, 2 g ai/ha",0.0%
same,Frequency 4/4 (100%),"Table 3, 150 DAA, 2 g ai/ha",0.0%
same,% Referring to Scale,"Table 3, 150 DAA, 5 g ai/ha",1.9%
same,Frequency 1/1 (0%),"Table 3, 150 DAA, 5 g ai/ha",87.5%
same,Frequency 2/1 (15%),"Table 3, 150 DAA, 5 g ai/ha",12.5%
same,Frequency 3/1 (30%),"Table 3, 150 DAA, 5 g ai/ha",0.0%
same,Frequency 4/1 (50%),"Table 3, 150 DAA, 5 g ai/ha",0.0%
same,Frequency 4/2 (80%),"Table 3, 150 DAA, 5 g ai/ha",0.0%
same,Frequency 4/3 (90%),"Table 3, 150 DAA, 5 g ai/ha",0.0%
same,Frequency 4/4 (100%),"Table 3, 150 DAA, 5 g ai/ha",0.0%
same,% Referring to Scale,"Table 3, 150 DAA, 7 g ai/ha",3.0%
same,Frequency 1/1 (0%),"Table 3, 150 DAA, 7 g ai/ha",80.0%
same,Frequency 2/1 (15%),"Table 3, 150 DAA, 7 g ai/ha",20.0%
same,Frequency 3/1 (30%),"Table 3, 150 DAA, 7 g ai/ha",0.0%
same,Frequency 4/1 (50%),"Table 3, 150 DAA, 7 g ai/ha",0.0%
same,Frequency 4/2 (80%),"Table 3, 150 DAA, 7 g ai/ha",0.0%
same,Frequency 4/3 (90%),"Table 3, 150 DAA, 7 g ai/ha",0.0%
same,Frequency 4/4 (100%),"Table 3, 150 DAA, 7 g ai/ha",0.0%
same,% Referring to Scale,"Table 3, 150 DAA, 10 g ai/ha",0.8%
same,Frequency 1/1 (0%),"Table 3, 150 DAA, 10 g ai/ha",95.0%
same,Frequency 2/1 (15%),"Table 3, 150 DAA, 10 g ai/ha",5.0%
same,Frequency 3/1 (30%),"Table 3, 150 DAA, 10 g ai/ha",0.0%
same,Frequency 4/1 (50%),"Table 3, 150 DAA, 10 g ai/ha",0.0%
same,Frequency 4/2 (80%),"Table 3, 150 DAA, 10 g ai/ha",0.0%
same,Frequency 4/3 (90%),"Table 3, 150 DAA, 10 g ai/ha",0.0%
same,Frequency 4/4 (100%),"Table 3, 150 DAA, 10 g ai/ha",0.0%
same,% Referring to Scale,"Table 3, 150 DAA, 15 g ai/ha",1.9%
same,Frequency 1/1 (0%),"Table 3, 150 DAA, 15 g ai/ha",87.5%
same,Frequency 2/1 (15%),"Table 3, 150 DAA, 15 g ai/ha",12.5%
same,Frequency 3/1 (30%),"Table 3, 150 DAA, 15 g ai/ha",0.0%
same,Frequency 4/1 (50%),"Table 3, 150 DAA, 15 g ai/ha",0.0%
same,Frequency 4/2 (80%),"Table 3, 150 DAA, 15 g ai/ha",0.0%
same,Frequency 4/3 (90%),"Table 3, 150 DAA, 15 g ai/ha",0.0%
same,Frequency 4/4 (100%),"Table 3, 150 DAA, 15 g ai/ha",0.0%
same,% Referring to Scale,"Table 3, 150 DAA, 20 g ai/ha",0.0%
same,Frequency 1/1 (0%),"Table 3, 150 DAA, 20 g ai/ha",100.0%
same,Frequency 2/1 (15%),"Table 3, 150 DAA, 20 g ai/ha",0.0%
same,Frequency 3/1 (30%),"Table 3, 150 DAA, 20 g ai/ha",0.0%
same,Frequency 4/1 (50%),"Table 3, 150 DAA, 20 g ai/ha",0.0%
same,Frequency 4/2 (80%),"Table 3, 150 DAA, 20 g ai/ha",0.0%
same,Frequency 4/3 (90%),"Table 3, 150 DAA, 20 g ai/ha",0.0%
same,Frequency 4/4 (100%),"Table 3, 150 DAA, 20 g ai/ha",0.0%
same,% Referring to Scale,"Table 4, 90 DAA, 2 g ai/ha",5.6%
same,Frequency 1/1 (0%),"Table 4, 90 DAA, 2 g ai/ha",65.0%
same,Frequency 2/1 (15%),"Table 4, 90 DAA, 2 g ai/ha",35.0%
same,Frequency 3/1 (30%),"Table 4, 90 DAA, 2 g ai/ha",0.0%
same,Frequency 4/1 (50%),"Table 4, 90 DAA, 2 g ai/ha",0.0%
same,Frequency 4/2 (80%),"Table 4, 90 DAA, 2 g ai/ha",0.0%
same,Frequency 4/3 (90%),"Table 4, 90 DAA, 2 g ai/ha",0.0%
same,Frequency 4/4 (100%),"Table 4, 90 DAA, 2 g ai/ha",0.0%
same,% Referring to Scale,"Table 4, 90 DAA, 4 g ai/ha",1.1%
same,Frequency 1/1 (0%),"Table 4, 90 DAA, 4 g ai/ha",87.5%
same,Frequency 2/1 (15%),"Table 4, 90 DAA, 4 g ai/ha",12.5%
same,Frequency 3/1 (30%),"Table 4, 90 DAA, 4 g ai/ha",0.0%
same,Frequency 4/1 (50%),"Table 4, 90 DAA, 4 g ai/ha",0.0%
same,Frequency 4/2 (80%),"Table 4, 90 DAA, 4 g ai/ha",0.0%
same,Frequency 4/3 (90%),"Table 4, 90 DAA, 4 g ai/ha",0.0%
same,Frequency 4/4 (100%),"Table 4, 90 DAA, 4 g ai/ha",0.0%
same,% Referring to Scale,"Table 4, 90 DAA, 10 g ai/ha",6.0%
same,Frequency 1/1 (0%),"Table 4, 90 DAA, 10 g ai/ha",60.0%
same,Frequency 2/1 (15%),"Table 4, 90 DAA, 10 g ai/ha",40.0%
same,Frequency 3/1 (30%),"Table 4, 90 DAA, 10 g ai/ha",0.0%
same,Frequency 4/1 (50%),"Table 4, 90 DAA, 10 g ai/ha",0.0%
same,Frequency 4/2 (80%),"Table 4, 90 DAA, 10 g ai/ha",0.0%
same,Frequency 4/3 (90%),"Table 4, 90 DAA, 10 g ai/ha",0.0%
same,Frequency 4/4 (100%),"Table 4, 90 DAA, 10 g ai/ha",0.0%
same,% Referring to Scale,"Table 4, 90 DAA, 15 g ai/ha",2.6%
same,Frequency 1/1 (0%),"Table 4, 90 DAA, 15 g ai/ha",82.5%
same,Frequency 2/1 (15%),"Table 4, 90 DAA, 15 g ai/ha",17.5%
same,Frequency 3/1 (30%),"Table 4, 90 DAA, 15 g ai/ha",0.0%
same,Frequency 4/1 (50%),"Table 4, 90 DAA, 15 g ai/ha",0.0%
same,Frequency 4/2 (80%),"Table 4, 90 DAA, 15 g ai/ha",0.0%
same,Frequency 4/3 (90%),"Table 4, 90 DAA, 15 g ai/ha",0.0%
same,Frequency 4/4 (100%),"Table 4, 90 DAA, 15 g ai/ha",0.0%
same,% Referring to Scale,"Table 4, 90 DAA, 20 g ai/ha",3.0%
same,Frequency 1/1 (0%),"Table 4, 90 DAA, 20 g ai/ha",80.0%
same,Frequency 2/1 (15%),"Table 4, 90 DAA, 20 g ai/ha",20.0%
same,Frequency 3/1 (30%),"Table 4, 90 DAA, 20 g ai/ha",0.0%
same,Frequency 4/1 (50%),"Table 4, 90 DAA, 20 g ai/ha",0.0%
same,Frequency 4/2 (80%),"Table 4, 90 DAA, 20 g ai/ha",0.0%
same,Frequency 4/3 (90%),"Table 4, 90 DAA, 20 g ai/ha",0.0%
same,Frequency 4/4 (100%),"Table 4, 90 DAA, 20 g ai/ha",0.0%
same,flowering inhibition performance versus the standard (Ethrel 720),"Tables 1-4, 60 to 150 days after application",as well as or better than the standard treatment; also recorded: equivalent to or better than the standard
same,sugarcane flowering inhibition,"field studies, rates from 2 to 20 g ai/ha",excellent sugarcane flowering inhibitor
